Usually IC50 stands for the concentration that inhibits the measured activity by half. The low end stands for higher potency, the high end for lower potency.

For experiment [1], the target named is T1, human MetAP2 enzyme (Homo sapiens, UniProt P50579). Description: MetAP2 enzyme assay, enzyme complexed with manganese ions. The conditions noted are these: MetAP2 Mn pIC50, MetAP2 enzyme complexed with manganese ions; Met-AMC substrate at Km.
Experiment [2] deals with T1, human MetAP2 enzyme. As to the kind of experiment: MetAP2 enzyme assay, enzyme complexed with cobalt ions. The conditions noted are these: MetAP2 Co pIC50, MetAP2 enzyme complexed with cobalt ions; Met-AMC substrate at Km.
Method: DNA encoding the full-length sequence of human MetAP2 enzyme is amplified by PCR and cloned into a pFastBac expression vector (Invitrogen). Recombinant baculovirus incorporating the MetAP2 construct is generated by transposition using the Bac-to-Bac system (Invitrogen). The expression of recombinant protein is carried out by infection of Spodoptera frugiperda Sf9 cells (Invitrogen) in 5 L Wave Bioreactors (Wave Biotech). Recombinant protein is isolated from cellular extracts by binding to an SP Hitrap Fast Flow or SP Sepharose (Sigma) column, and the protein is eluted using a NaCl gradient. Partially purified extracts of MetAP2 are further purified by an AKTA FPLC over a Superdex-200 column (GE). The purity of MetAP2 protein is determined on denaturing SDS-PAGE gel.
The results for each well are expressed as percent inhibition and calculated using the equation:

T1 sequence (P50579 whole entry): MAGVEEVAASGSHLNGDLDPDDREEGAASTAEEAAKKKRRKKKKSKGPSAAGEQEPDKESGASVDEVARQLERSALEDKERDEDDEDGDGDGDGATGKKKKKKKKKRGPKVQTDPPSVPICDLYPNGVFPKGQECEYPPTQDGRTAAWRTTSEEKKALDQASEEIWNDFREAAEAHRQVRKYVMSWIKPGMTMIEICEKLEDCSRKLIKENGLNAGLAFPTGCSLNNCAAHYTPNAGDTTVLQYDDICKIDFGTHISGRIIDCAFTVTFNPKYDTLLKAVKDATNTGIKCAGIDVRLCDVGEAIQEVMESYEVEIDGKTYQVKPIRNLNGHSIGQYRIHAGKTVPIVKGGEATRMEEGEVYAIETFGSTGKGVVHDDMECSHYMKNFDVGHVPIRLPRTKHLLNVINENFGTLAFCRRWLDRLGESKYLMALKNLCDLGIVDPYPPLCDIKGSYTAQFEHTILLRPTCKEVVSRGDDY

Consider `C[C@H](O)CNc1ncc(-c2cc(C(F)(F)F)cc3[nH]ncc23)cn1` [Example 208, (S)-1-(5-(6-(trifluoromethyl)-1H-indazol-4-yl)pyrimidin-2-ylamino)propan-2-ol], for which the IC50 is 6.31 nM on human MetAP2 enzyme [1] and 79.4 nM against human MetAP2 enzyme [2].

As for `FC(F)(F)c1cc(-c2cnc3ncccn23)c2cn[nH]c2c1` [Example 151, 3-(6-(trifluoromethyl)-1H-indazol-4-yl)imidazo[1,2-a]pyrimidine], the IC50 against human MetAP2 enzyme [1] is 6.31 nM; at human MetAP2 enzyme [2] it was 200 nM.

In the case of `FC(F)(F)c1cc(-c2cnn(Cc3cccnc3)c2)c2cn[nH]c2c1` [Example 96, 4-(1-(pyridin-3-ylmethyl)-1H-pyrazol-4-yl)-6-(trifluoromethyl)-1H-indazole], the 50% inhibitory concentration (IC50) at human MetAP2 enzyme [1] was 5.01 nM; on human MetAP2 enzyme [2], 39.8 nM.

As for `Cc1[nH]cnc1-c1cc(C(F)(F)F)cc2[nH]ncc12` [Example 161, 4-(5-methyl-1H-imidazol-4-yl)-6-(trifluoromethyl)-1H-indazole], the results for the IC50 at human MetAP2 enzyme [1] and on human MetAP2 enzyme [2] were 12.6 nM and 251 nM, respectively.

For the compound `COc1cc(C(N)=O)ccc1-c1cc(C(F)(F)F)cc2[nH]ncc12` [Example 306, 3-methoxy-4-(6-(trifluoromethyl)-1H-indazol-4-yl)benzamide], the IC50 against human MetAP2 enzyme [1] is 6.31 nM; at human MetAP2 enzyme [2], 15.8 nM.

With `COc1ccc(C(=O)N2CCN(C)CC2)cc1-c1cc(C(F)(F)F)cc2[nH]ncc12` [Example 266, (4-methoxy-3-(6-(trifluoromethyl)-1H-indazol-4-yl)phenyl)(4-methylpiperazin-1-yl)methanone], the IC50 against human MetAP2 enzyme [1] is 12.6 nM; at human MetAP2 enzyme [2] it was 63.1 nM.

As for `FC(F)(F)c1cc(-c2ccnc3ccccc23)c2cn[nH]c2c1` [Example 112, 4-(6-(trifluoromethyl)-1H-indazol-4-yl)quinoline], the IC50 was 12.6 nM at human MetAP2 enzyme [1] and 50.1 nM on human MetAP2 enzyme [2].

As to `Cn1cc(-c2cc(C(F)(F)F)cc3[nH]ncc23)c(CO)n1` [Example 220, (1-methyl-4-(6-(trifluoromethyl)-1H-indazol-4-yl)-1H-pyrazol-3-yl)methanol], the IC50 is 6.31 nM against human MetAP2 enzyme [1] and 79.4 nM against human MetAP2 enzyme [2].

For the compound `FC(F)(F)c1cc(-c2ccc(OCC3CC3)nc2)c2cn[nH]c2c1` [Example 58, 4-(6-(cyclopropylmethoxy)pyridin-3-yl)-6-(trifluoromethyl)-1H-indazole], the concentration for half-maximal inhibition (IC50) was 12.6 nM against human MetAP2 enzyme [1] and 126 nM against human MetAP2 enzyme [2].

`COc1cc(C)c(-c2cc(C(F)(F)F)cc3[nH]ncc23)cn1` [Example 253, 4-(6-methoxy-4-methylpyridin-3-yl)-6-(trifluoromethyl)-1H-indazole]: the values for the IC50 at human MetAP2 enzyme [1] and on human MetAP2 enzyme [2] were 10 nM and 63.1 nM, respectively.

Turning to `CNC(=O)c1ccc(F)c(-c2cc(C(F)(F)F)cc3[nH]ncc23)c1` [Example 114, 4-fluoro-N-methyl-3-(6-(trifluoromethyl)-1H-indazol-4-yl)benzamide], the results for the IC50 on human MetAP2 enzyme [1] and against human MetAP2 enzyme [2] were 6.31 nM and 50.1 nM, respectively.

As for `NS(=O)(=O)c1cncc(-c2cc(C(F)(F)F)cc3[nH]ncc23)c1` [Example 346, 5-(6-(trifluoromethyl)-1H-indazol-4-yl)pyridine-3-sulfonamide], the 50% inhibitory concentration (IC50) is 5.01 nM on human MetAP2 enzyme [1] and 100 nM at human MetAP2 enzyme [2].

On to `O=c1[nH]cnc2[nH]nc(-c3cc(C(F)(F)F)cc4[nH]ncc34)c12` [Example 156, 3-(6-(trifluoromethyl)-1H-indazol-4-yl)-1H-pyrazolo[3,4-d]pyrimidin-4(5H)-one], for which the values for the concentration for half-maximal inhibition (IC50) against human MetAP2 enzyme [1] and at human MetAP2 enzyme [2] were 31.6 nM and 501 nM, respectively.

As for `O=C1Cc2cc(-c3cc(C(F)(F)F)cc4[nH]ncc34)cnc2N1` [Example 238, 5-(6-(trifluoromethyl)-1H-indazol-4-yl)-1H-pyrrolo[2,3-b]pyridin-2(3H)-one], the values for the IC50 on human MetAP2 enzyme [1] and on human MetAP2 enzyme [2] were 6.31 nM and 39.8 nM, respectively.

Turning to `CN1CCN(C(=O)c2cc(-c3cc(C(F)(F)F)cc4[nH]ncc34)c[nH]c2=O)CC1` [Example 227, 3-(4-methylpiperazine-1-carbonyl)-5-(6-(trifluoromethyl)-1H-indazol-4-yl)pyridin-2(1H)-one], the values for the IC50 on human MetAP2 enzyme [1] and at human MetAP2 enzyme [2] were 7.94 nM and 126 nM, respectively.

Regarding `FC(F)(F)c1cc(-c2ccc3[nH]cnc3c2)c2cn[nH]c2c1` [Example 17, 4-(1H-benzo[d]imidazol-5-yl)-6-(trifluoromethyl)-1H-indazole], the IC50 on human MetAP2 enzyme [1] was 7.94 nM; at human MetAP2 enzyme [2] it was 20 nM.

On to `N#Cc1cc(F)ccc1-c1cc(C(F)(F)F)cc2[nH]ncc12` [Example 75, 5-fluoro-2-(6-(trifluoromethyl)-1H-indazol-4-yl)benzonitrile], for which the IC50 was 7.94 nM at human MetAP2 enzyme [1] and 158 nM at human MetAP2 enzyme [2].

With `NC(=O)c1cc(-c2cc(C(F)(F)F)cc3[nH]ncc23)ccc1F` [Example 110, 2-fluoro-5-(6-(trifluoromethyl)-1H-indazol-4-yl)benzamide], the IC50 on human MetAP2 enzyme [1] was 3.98 nM; against human MetAP2 enzyme [2], 63.1 nM.

With `C[C@@H](O)CNC(=O)c1c[nH]c(=O)c(-c2cc(C(F)(F)F)cc3[nH]ncc23)c1` [Example 336, (R)—N-(2-hydroxypropyl)-6-oxo-5-(6-(trifluoromethyl)-1H-indazol-4-yl)-1,6-dihydropyridine-3-carboxamide], the IC50 on human MetAP2 enzyme [1] is 10 nM; against human MetAP2 enzyme [2], 631 nM.

Turning to `O=C(O)Cn1cc(-c2cc(C(F)(F)F)cc3[nH]ncc23)ccc1=O` [Example 374, 2-(2-oxo-5-(6-(trifluoromethyl)-1H-indazol-4-yl)pyridin-1(2H)-yl)acetic acid], the IC50 on human MetAP2 enzyme [1] is 63.1 nM; against human MetAP2 enzyme [2], 1580 nM.

Turning to `FC(F)(F)c1cc(-c2cnc3cnccn23)c2cn[nH]c2c1` [Example 152, 3-(6-(trifluoromethyl)-1H-indazol-4-yl)imidazo[1,2-a]pyrazine], the IC50 is 126 nM at human MetAP2 enzyme [1] and 2000 nM at human MetAP2 enzyme [2].

Turning to `COc1cc(-c2cc(C(F)(F)F)cc3[nH]ncc23)c(OC)nn1` [Example 248, 4-(3,6-dimethoxypyridazin-4-yl)-6-(trifluoromethyl)-1H-indazole], the IC50 at human MetAP2 enzyme [1] was 5.01 nM; against human MetAP2 enzyme [2] it was 63.1 nM.

In the case of `CN1CCN(C(=O)c2cc(-c3cc(C(F)(F)F)cc4[nH]ncc34)ccn2)CC1` [Example 284, (4-methylpiperazin-1-yl)(4-(6-(trifluoromethyl)-1H-indazol-4-yl)pyridin-2-yl)methanone], the IC50 was 7.94 nM against human MetAP2 enzyme [1] and 79.4 nM against human MetAP2 enzyme [2].

Regarding `Cc1nn(C)c(C(N)=O)c1-c1cc(C(F)(F)F)cc2[nH]ncc12` [Example 327, 1,3-dimethyl-4-(6-(trifluoromethyl)-1H-indazol-4-yl)-1H-pyrazole-5-carboxamide], the figures for the IC50 on human MetAP2 enzyme [1] and against human MetAP2 enzyme [2] were 63.1 nM and 631 nM, respectively.

With `COc1ccc(-c2cc(C(F)(F)F)cc3[nH]ncc23)c(CO)c1` [Example 189, (5-methoxy-2-(6-(trifluoromethyl)-1H-indazol-4-yl)phenyl)methanol], the IC50 at human MetAP2 enzyme [1] was 5.01 nM; against human MetAP2 enzyme [2] it was 50.1 nM.

For `CNC(=O)c1ccc(-c2cc(C(F)(F)F)cc3[nH]ncc23)cc1F` [Example 92, 2-fluoro-N-methyl-4-(6-(trifluoromethyl)-1H-indazol-4-yl)benzamide], the IC50 against human MetAP2 enzyme [1] is 3.98 nM; against human MetAP2 enzyme [2] it was 50.1 nM.

For `Nc1ncc(-c2cc(C(F)(F)F)cc3[nH]ncc23)cn1` [Example 9, 5-(6-(trifluoromethyl)-1H-indazol-4-yl)pyrimidin-2-amine], the figures for the IC50 against human MetAP2 enzyme [1] and at human MetAP2 enzyme [2] were 3.98 nM and 50.1 nM, respectively.

In the case of `COc1ncc(-c2cc(C(F)(F)F)cc3[nH]ncc23)cc1C(=O)NCCO` [Example 229, N-(2-hydroxyethyl)-2-methoxy-5-(6-(trifluoromethyl)-1H-indazol-4-yl)nicotinamide], the half-maximal inhibitory concentration (IC50) against human MetAP2 enzyme [1] was 6.31 nM; against human MetAP2 enzyme [2], 63.1 nM.

Regarding `N#CCOc1ccccc1-c1cc(C(F)(F)F)cc2[nH]ncc12` [Example 93, 2-(2-(6-(trifluoromethyl)-1H-indazol-4-yl)phenoxy)acetonitrile], the figures for the IC50 on human MetAP2 enzyme [1] and at human MetAP2 enzyme [2] were 10 nM and 50.1 nM, respectively.

For `O=C(c1cc(-c2cc(C(F)(F)F)cc3[nH]ncc23)ccn1)N1CC(O)C1` [Example 385, (3-hydroxyazetidin-1-yl)(4-(6-(trifluoromethyl)-1H-indazol-4-yl)pyridin-2-yl)methanone], the IC50 on human MetAP2 enzyme [1] was 5.01 nM; at human MetAP2 enzyme [2], 79.4 nM.

Turning to `Cc1ccc(-c2cc(C(F)(F)F)cc3[nH]ncc23)c(N)n1` [Example 211, 6-methyl-3-(6-(trifluoromethyl)-1H-indazol-4-yl)pyridin-2-amine], the figures for the half-inhibitory concentration (IC50) against human MetAP2 enzyme [1] and on human MetAP2 enzyme [2] were 6.31 nM and 25.1 nM, respectively.

Take `OCc1ccc(-c2cc(C(F)(F)F)cc3[nH]ncc23)cc1` [Example 11, (4-(6-(trifluoromethyl)-1H-indazol-4-yl)phenyl)methanol]: the IC50 at human MetAP2 enzyme [1] was 3.16 nM; on human MetAP2 enzyme [2], 31.6 nM.

With `FC(F)(F)c1cc(-c2ccncc2)c2cn[nH]c2c1` [Example 14, 4-(pyridin-4-yl)-6-(trifluoromethyl)-1H-indazole], the IC50 is 10 nM on human MetAP2 enzyme [1] and 100 nM against human MetAP2 enzyme [2].

Turning to `Cc1onc(N)c1-c1cc(C(F)(F)F)cc2[nH]ncc12` [Example 166, 5-methyl-4-(6-(trifluoromethyl)-1H-indazol-4-yl)isoxazol-3-amine], the IC50 against human MetAP2 enzyme [1] is 39.8 nM; at human MetAP2 enzyme [2], 794 nM.

`COCc1[nH]nc(C)c1-c1cc(C(F)(F)F)cc2[nH]ncc12` [Example 323, 4-(5-(methoxymethyl)-3-methyl-1H-pyrazol-4-yl)-6-(trifluoromethyl)-1H-indazole]: the half-maximal inhibitory concentration (IC50) is 12.6 nM against human MetAP2 enzyme [1] and 10 nM against human MetAP2 enzyme [2].

Turning to `COc1cccc(-c2cc(C(F)(F)F)cc3[nH]ncc23)c1OC` [Example 87, 4-(2,3-dimethoxyphenyl)-6-(trifluoromethyl)-1H-indazole], the half-inhibitory concentration (IC50) against human MetAP2 enzyme [1] is 7.94 nM; on human MetAP2 enzyme [2], 126 nM.

(Values after patent US9434743B2, “Indazole derivatives” (TAKEDA PHARMACEUTICAL COMPANY LIMITED, priority 2012, dated 2016).)
